Consider 21 compounds from patent US11312727B1, “Macrocyclic flu endonuclease inhibitors” (Janssen BioPharma, Inc., priority 2018, dated 2022).

Structures are written as SMILES.

By EC50 is commonly meant the concentration giving half of the maximal effect. What is called CC50 is the concentration at which the toxic effect on the cells reaches its halfway point. Read a high CC50 as lower toxicity to the cells.

The test system of data set [1] is Influenza strain A549 A/WSN/33 (H1N1). Put plainly: microbe, parasite or virus in culture. Particulars: Influenza A virus, A549, 20 h, A549 cells, influenza A/WSN/33 (H1N1), 20 hours incubation; read-out: A549_A(H1N1) EC50. The class given is cell-based.
The nature of data set [2]: in vitro. Particulars: human, CC50, uninfected A549 cells, CellTiter-Glo.

Regarding `CC[C@@H]1/C=C\COc2cc(F)c(F)c3c2[C@@H](c2ccccc2SC3)N2CN1C(=O)c1c(O)c(=O)ccn12` (single isomer, unassigned) [Compound 126BB, (13*R,21a*S,Z)-13-ethyl-24,25-difluoro-16-hydroxy-6,10,13,21a-tetrahydro-7,8-(epiprop[1]en[1]yl[3]ylidene)-14,21-methanobenzo[6,7]thiepino[4,5-c]pyrido[1,2-f][1]oxa[5,6,9]triazacyclotridecine-15,17-dione], in data set [1], the EC50 came to 1 nM. This compound had a CC50 in data set [2] greater than 200 nM.
For `O=C1c2c(O)c(=O)ccn2N2CN1C[C@H]1C[C@@H]1COc1c(ccc(F)c1F)[C@@H]2c1ccccc1` (single isomer, unassigned) [Compound 139AA, (1a*S,8*S,17a*S)-4,5-difluoro-14-hydroxy-8-phenyl-1a,2,17,17a-tetrahydro-1H,8H-9,16-methanobenzo[b]cyclopropa[k]pyrido[1,2-f][1]oxa[5,6,9]triazacyclotridecine-13,15-dione], the EC50 in data set [1] stood at 8320 nM. The CC50 in data set [2] was 26900 nM.
The matching figures for `O=C1c2c(O)c(=O)ccn2N2CN1C/C=C/COc1cccc3c1[C@H]2c1ccccc1SC3` [Compound 46D, (17S,E)-12-hydroxy-2,6,9,17a-tetrahydro-3,4-(epiprop[1]en[1]yl[3]ylidene)-10,17-methanobenzo[6,7]thiepino[4,5-c]pyrido[1,2-f][1]oxa[5,6,9]triazacyclotridecine-11,13-dione]: 1 nM and greater than 200 nM.
In the case of `C/C1=C/CN2CN([C@@H](c3ccccc3)c3ccccc3OC1)n1ccc(=O)c(O)c1C2=O` (single isomer, unassigned) [Compound 44B, (18*S,*Z)-12-hydroxy-7-methyl-18-phenyl-6,9-dihydro-18H-10,17-methanobenzo[b]pyrido[1,2-f][1]oxa[5,6,9]triazacyclotridecine-11,13-dione], the EC50 in data set [1] was greater than 10000 nM. The CC50 in data set [2] is greater than 20000 nM.
The matching figures for `O=C1c2c(O)c(=O)ccn2N2CN1CCC1C[C@@H]1COc1cccc3c1[C@@H]2c1ccccc1SC3` (single isomer, unassigned) [Compound 131AB, (1*R,13*R,15*S)-7-hydroxy-17-oxa-24-thia-2,3,10-triazaheptacyclo[16.12.1.12,10.03,8.013,15.022,31.025,30]dotriaconta-4,18,20,22(31),25(30),26,28-heptaene-6,9-dione]: 17 nM and greater than 200 nM.
The matching figures for `CC[C@@H]1/C=C/COc2c(ccc(F)c2F)[C@@H](c2ccccn2)N2CN1C(=O)c1c(O)c(=O)ccn12` (single isomer, unassigned) [Compound 160AB, (9*R,18*S,*E)-9-ethyl-3,4-difluoro-12-hydroxy-18-(pyridin-2-yl)-6,9-dihydro-18H-10,17-methanobenzo[b]pyrido[1,2-f][1]oxa[5,6,9]triazacyclotridecine-11,13-dione]: 2.8 nM and greater than 100 nM.
Turning to `O=C1c2c(O)c(=O)ccn2N2CN1C/C=C\COc1c(F)cccc1[C@H]2c1ccccc1` (single isomer, unassigned) [Compound 61A, (18*R,Z)-4-fluoro-12-hydroxy-18-phenyl-6,9-dihydro-18H-10,17-methanobenzo[b]pyrido[1,2-f][1]oxa[5,6,9]triazacyclotridecine-11,13-dione], the concentration giving a half-maximal response (EC50) in data set [1] stood at 5 nM. For the same compound, in data set [2], the CC50 is greater than 2000 nM.
The matching figures for `Cc1ccc2c(c1F)OC/C=C\CN1CN([C@@H]2c2ccccc2)n2ccc(=O)c(O)c2C1=O` (single isomer, unassigned) [Compound 135A, (18*R,Z)-4-fluoro-12-hydroxy-3-methyl-18-phenyl-6,9-dihydro-18H-10,17-methanobenzo[b]pyrido[1,2-f][1]oxa[5,6,9]triazacyclotridecine-11,13-dione]: 7.3 nM and greater than 200 nM.
For `O=C1c2c(O)c(=O)ccn2N2CN1CC[C@@H]1C[C@H]1COc1cccc3c1[C@H]2c1ccccc1SC3` (single isomer, unassigned) [Compound 131BA, (1*S,13*S,15*R)-7-hydroxy-17-oxa-24-thia-2,3,10-triazaheptacyclo[16.12.1.12,10.03,8.013,15.022,31.025,30]dotriaconta-4,18,20,22(31),25(30),26,28-heptaene-6,9-dione], the EC50 in data set [1] is greater than 100 nM. This compound showed a half-maximal cytotoxic concentration (CC50) in data set [2] greater than 200 nM.
The matching figures for `O=C1c2c(O)c(=O)ccn2N2CN1C1(/C=C/COc3c(ccc(F)c3F)[C@@H]2c2ccccc2)CC1` [Compound 102B, (18'S,E)-3′,4′-difluoro-12′-hydroxy-18′-phenyl-6′H,18′H-spiro[cyclopropane-1,9′-[10,17]methanobenzo[b]pyrido[1,2-f][1]oxa[5,6,9]triazacyclotridecine]-11′,13′-dione]: 3360 nM and 33900 nM.
Turning to `O=C1c2c(O)c(=O)ccn2N2CN1C1(/C=C/COc3c(ccc(F)c3F)[C@@H]2c2ccccn2)CCC1` (single isomer, unassigned) [Compound 172B, (18′*R,*E)-3′,4′-difluoro-12′-hydroxy-18′-(pyridin-2-yl)-6′H,18′H-spiro[cyclobutane-1,9′-[10,17]methanobenzo[b]pyrido[1,2-f][1]oxa[5,6,9]triazacyclotridecine]-11′,13′-dione], in data set [1], the EC50 is greater than 50 nM. The compound also came in with a 50% cytotoxic concentration (CC50) in data set [2] greater than 100 nM.
For `O=C1c2c(O)c(=O)ccn2N2CN1CC[C@@H]1C[C@@H]1COc1cccc3c1[C@@H]2c1ccccc1SC3` (single isomer, unassigned) [Compound 144AA, (1*R,13*S,15*S)-7-hydroxy-17-oxa-24-thia-2,3,10-triazaheptacyclo[16.12.1.12,10.03,8.013,15.022,31.025,30]dotriaconta-4,18,20,22(31),25(30),26,28-heptaene-6,9-dione], the EC50 in data set [1] is greater than 100 nM. Also, in data set [2], the CC50 was greater than 200 nM.
The matching figures for `O=C1c2c(O)c(=O)ccn2N2CN1C/C=C\COc1cc(F)c(F)cc1[C@@H]2c1ccccn1` (single isomer, unassigned) [Compound 70A, (18*R,*Z)-2,3-difluoro-12-hydroxy-18-(pyridin-2-yl)-6,9-dihydro-18H-10,17-methanobenzo[b]pyrido[1,2-f][1]oxa[5,6,9]triazacyclotridecine-11,13-dione]: greater than 10000 nM and greater than 20000 nM.
The matching figures for `CC[C@@H]1/C=C/COc2c(ccc(Cl)c2Cl)[C@H](c2ccccc2)N2CN1C(=O)c1c(O)c(=O)ccn12` (single isomer, unassigned) [Compound 121BA, (9*R,18*S,*E)-3,4-dichloro-9-ethyl-12-hydroxy-18-phenyl-6,9-dihydro-18H-10,17-methanobenzo[b]pyrido[1,2-f][1]oxa[5,6,9]triazacyclotridecine-11,13-dione]: 2.8 nM and greater than 200 nM.
The matching figures for `O=C1c2c(O)c(=O)ccn2N2CN1C/C=C/COc1cccc3c1[C@@H]2c1ccccc1SC3` [Compound 46C, (17R,E)-12-hydroxy-2,6,9,17a-tetrahydro-3,4-(epiprop[1]en[1]yl[3]ylidene)-10,17-methanobenzo[6,7]thiepino[4,5-c]pyrido[1,2-f][1]oxa[5,6,9]triazacyclotridecine-11,13-dione]: 330 nM and greater than 2000 nM.
With `O=C1c2c(O)c(=O)ccn2N2CN1CC/C=C/COc1cccc3c1[C@@H]2c1cccc(F)c1SC3` (single isomer, unassigned) [Compound 137A, (1*R,13*E)-25-fluoro-7-hydroxy-16-oxa-23-thia-2,3,10-triazahexacyclo[15.12.1.12,10.03,8.021,30.024,29]hentriaconta-4,7,13,17,19,21(30),24(29),25,27-nonaene-6,9-dione], the EC50 in data set [1] is greater than 100 nM. Also, in data set [2], the CC50 was greater than 200 nM.
The matching figures for `C/C1=C/COc2ccccc2[C@H](c2ccccc2)N2CN(C1)C(=O)c1c(O)c(=O)ccn12` (single isomer, unassigned) [Compound 38B, (18*S,Z)-12-hydroxy-8-methyl-18-phenyl-6,9-dihydro-18H-10,17-methanobenzo[b]pyrido[1,2-f][1]oxa[5,6,9]triazacyclotridecine-11,13-dione]: 26 nM and greater than 2000 nM.
`CC[C@H]1/C=C/COc2cc(F)ccc2[C@@H](c2ccccc2)N2CN1C(=O)c1c(O)c(=O)ccn12` (single isomer, unassigned) [Compound 89AA, (9*S,18*R,E)-9-ethyl-3-fluoro-12-hydroxy-18-phenyl-6,9-dihydro-18H-10,17-methanobenzo[b]pyrido[1,2-f][1]oxa[5,6,9]triazacyclotridecine-11,13-dione]: the EC50 in data set [1] was determined as 10800 nM. The compound further came in with a CC50 in data set [2] of 39300 nM.
The matching figures for `O=C1c2c(O)c(=O)ccn2N2CN1C/C=C\COc1ccccc1[C@@H]2c1ccccc1` [Compound 5B, (18S,Z)-12-hydroxy-18-phenyl-6,9-dihydro-18H-10,17-methanobenzo[b]pyrido[1,2-f][1]oxa[5,6,9]triazacyclotridecine-11,13-dione]: greater than 1000 nM and greater than 2000 nM.
In the case of `O=C1c2c(O)c(=O)ccn2N2CN1C/C=C/COc1cccc3c1[C@H]2c1ccccc1S(=O)(=O)C3` [Compound 82, (17aS,E)-12-hydroxy-2,6,9,17a-tetrahydro-3,4-(epiprop[1]en[1]yl[3]ylidene)-10,17-methanobenzo[6,7]thiepino[4,5-c]pyrido[1,2-f][1]oxa[5,6,9]triazacyclotridecine-11,13-dione 1,1-dioxide], in data set [1], the EC50 amounted to 71 nM. In data set [2], this compound showed a CC50 greater than 1000 nM.
The matching figures for `O=C1c2c(O)c(=O)ccn2N2CN1C/C=C\COc1c(ccc(F)c1F)[C@@H]2c1ccccc1` (single isomer, unassigned) [Compound 74B, (18*S,Z)-3,4-difluoro-12-hydroxy-18-phenyl-6,9-dihydro-18H-10,17-methanobenzo[b]pyrido[1,2-f][1]oxa[5,6,9]triazacyclotridecine-11,13-dione]: 2 nM and greater than 200 nM.
